Laboratory results as given in patent US20090054392A1, “NAPHTHYLPYRIMIDINE, NAPHTHYLPYRAZINE AND NAPHTHYLPYRIDAZINE ANALOGS AND THEIR USE AS AGONISTS OF THE WNT-BETA-CATENIN CELLULAR MESSAGING SYSTEM” (Wyeth, priority 2007, published 2009).

Test system: Dkk1-LRP5-TCF-Luciferase
Assay: Functional Dkk1-LRP5-TCF-Luciferase Assay in U2OS Cells
Conditions: for fold induction at 2 µM / fold induction at 20 µM / EC50: Homo sapiens, U2OS; for fold induction at 2 µM: read-out: B = TCF ACTIVITY/DMSO CONTROL Fold induction @ 2.0 uM, 2.0 uM compound; for fold induction at 20 µM: read-out: C = TCF ACTIVITY/DMSO CONTROL Fold induction @ 20.0 uM, 20.0 uM compound; for A = MAX FOLD Induction/DMSO CONTROL: maximum fold induction over DMSO control

Compound | fold induction at 2 µM | fold induction at 20 µM | A = MAX FOLD Induction/DMSO CONTROL [fold] | EC50 [µM] | C = TCF ACTIVITY/DMSO CONTROL Fold induction @ 20.0 uM (20.0 uM compound, 20 µM) [fold]
c1ccc2cc(-c3ccnc(N[C@H]4CCNC4)n3)ccc2c1 [4-(2-naphthyl)-N-[(3S)-pyrrolidin-3-yl]pyrimidin-2-amine] | 2.84 | 0.89 | 1.360 |  | 
c1ccc2cc(-c3ccnc(NC[C@H]4CCNC4)n3)ccc2c1 [4-(2-naphthyl)-N-[(3S)-pyrrolidin-3-ylmethyl]pyrimidin-2-amine] |  |  | 6.810 | 3.74 | 
c1ccc2cc(-c3ccnc(NC4CCNCC4)n3)ccc2c1 [4-(2-naphthyl)-N-piperidin-4-ylpyrimidin-2-amine] | 1.47 | 1.75 | 3.723 | 4.12 | 
CCCNc1nccc(-c2ccc3ccccc3c2)n1 [4-(2-naphthyl)-N-propylpyrimidin-2-amine] | 1.28 |  |  |  | 
O=C(Cc1ccccc1)N1CCC(CNc2nccc(-c3ccc4ccccc4c3)n2)CC1 [4-(2-naphthyl)-N-{[1-(phenylacetyl)piperidin-4-yl]methyl}pyrimidin-2-amine] | 1.03 | 1.87 |  |  | 
O=C(N1CCCC1)N1CCC(CNc2nccc(-c3ccc4ccccc4c3)n2)CC1 [4-(2-naphthyl)-N-{[1-(pyrrolidin-1-ylcarbonyl)piperidin-4-yl]methyl}pyrimidin-2-amine] | 1.08 | 0.907 |  |  | 
O=C(N1CC(CNc2nccc(-c3ccc4ccccc4c3)n2)C1)C(F)(F)F [4-(2-naphthyl)-N-{[1-(trifluoroacetyl)azetidin-3-yl]methyl}pyrimidin-2-amine] | 1.5 |  |  |  | 
c1ccc2cc(-c3ccnc(N4CCN(CCN5CCOCC5)CC4)n3)ccc2c1 [4-(2-{4-[4-(2-naphthyl)pyrimidin-2-yl]piperazin-1-yl}ethyl)morpholine] | 1.53 | 3.49 | 2.400 | 4.6 | 3.000
c1ccc2cc(-c3ccnc(N4CCN(CCCN5CCOCC5)CC4)n3)ccc2c1 [4-(3-{4-[4-(2-naphthyl)pyrimidin-2-yl]piperazin-1-yl}propyl)morpholine] | 1.29 | 0.01 |  |  | 
NCC1(O)CCN(c2nccc(-c3ccc4ccccc4c3)n2)CC1 [4-(aminomethyl)-1-[4-(2-naphthyl)pyrimidin-2-yl]piperidin-4-ol] | 1.6 |  | 2.950 | 1.18 | 
c1ccc2cc(-c3ccnc(N4CCC(CN5CCOCC5)CC4)n3)ccc2c1 [4-({1-[4-(2-naphthyl)pyrimidin-2-yl]piperidin-4-yl}methyl)morpholine] | 0.76 | 1.96 | 2.380 | 4.98 | 
O=C1CN(CC2CCN(c3nccc(-c4ccc5ccccc5c4)n3)CC2)CCN1 [4-({1-[4-(2-naphthyl)pyrimidin-2-yl]piperidin-4-yl}methyl)piperazin-2-one] | 1.16 | 1.49 |  |  | 
c1ccc2cc(-c3ccnc(N4CCC(CN5CCOCC5)C4)n3)ccc2c1 (centres unmarked) [4-({1-[4-(2-naphthyl)pyrimidin-2-yl]pyrrolidin-3-yl}methyl)morpholine] | 1.07 | 3.1 | 2.990 | 4.8 | 
O=C1CN(CC2CCN(c3nccc(-c4ccc5ccccc5c4)n3)C2)CCN1 (centres unmarked) [4-({1-[4-(2-naphthyl)pyrimidin-2-yl]pyrrolidin-3-yl}methyl)piperazin-2-one] | 1.23 | 0.46 |  |  | 
c1ccc2cc(-c3ccnc(N4CCC(CN5CCSCC5)C4)n3)ccc2c1 (centres unmarked) [4-({1-[4-(2-naphthyl)pyrimidin-2-yl]pyrrolidin-3-yl}methyl)thiomorpholine] | 1.9 |  |  |  | 
O=C(CN1CCN(c2nccc(-c3ccc4ccccc4c3)n2)CC1)N1CCOCC1 [4-({4-[4-(2-naphthyl)pyrimidin-2-yl]piperazin-1-yl}acetyl)morpholine] | 1.03 | 2.1 | 1.180 |  | 
NS(=O)(=O)c1ccc(CNc2nccc(-c3ccc4ccccc4c3)n2)cc1 [4-({[4-(2-naphthyl)pyrimidin-2-yl]amino}methyl)benzenesulfonamide] | 1.3 | 1.06 |  |  | 
NC(=O)N1CCC(CNc2nccc(-c3ccc4ccccc4c3)n2)CC1 [4-({[4-(2-naphthyl)pyrimidin-2-yl]amino}methyl)piperidine-1-carboxamide] | 0.88 | 1.58 |  |  | 
O=CN1CCCN(c2nccc(-c3ccc4ccccc4c3)n2)CC1 [4-[4-(2-naphthyl)pyrimidin-2-yl]-1,4-diazepane-1-carbaldehyde] | 0.87 | 1.88 |  |  | 

Compound | fold induction at 2 µM | fold induction at 20 µM | A = MAX FOLD Induction/DMSO CONTROL [fold] | EC50 [µM] | C = TCF ACTIVITY/DMSO CONTROL Fold induction @ 20.0 uM (20.0 uM compound, 20 µM) [fold]
NC(=O)N1CCCN(c2nccc(-c3ccc4ccccc4c3)n2)CC1 [4-[4-(2-naphthyl)pyrimidin-2-yl]-1,4-diazepane-1-carboxamide] | 1.5 | 1.79 | 2.050 | 0.32 | 
N=C(N)N1CCN(c2nccc(-c3ccc4ccccc4c3)n2)CC1 [4-[4-(2-naphthyl)pyrimidin-2-yl]piperazine-1-carboximidamide] | 1.1 | 0.05 |  |  | 
O=C(N[C@@H]1CCN(c2nccc(-c3ccc4ccccc4c3)n2)C1)c1ccc(Cl)cc1 [4-chloro-N-{(3R)-1-[4-(2-naphthyl)pyrimidin-2-yl]pyrrolidin-3-yl}benzamide] | 1.68 |  |  |  | 
O=C(N[C@H]1CCN(c2nccc(-c3ccc4ccccc4c3)n2)C1)c1ccc(Cl)cc1 [4-chloro-N-{(3S)-1-[4-(2-naphthyl)pyrimidin-2-yl]pyrrolidin-3-yl}benzamide] | 1.78 |  |  |  | 
N#Cc1ccc(C(=O)NC2CCCC(Nc3nccc(-c4ccc5ccccc5c4)n3)C2)cc1 (centres unmarked) [4-cyano-N-(3-{[4-(2-naphthyl)pyrimidin-2-yl]amino}cyclohexyl)benzamide] | 1.15 | 0.24 |  |  | 
N#Cc1ccc(C(=O)N[C@@H]2CCN(c3nccc(-c4ccc5ccccc5c4)n3)C2)cc1 [4-cyano-N-{(3R)-1-[4-(2-naphthyl)pyrimidin-2-yl]pyrrolidin-3-yl}benzamide] |  | 1.29 |  |  | 
N#Cc1ccc(C(=O)N[C@H]2CCN(c3nccc(-c4ccc5ccccc5c4)n3)C2)cc1 [4-cyano-N-{(3S)-1-[4-(2-naphthyl)pyrimidin-2-yl]pyrrolidin-3-yl}benzamide] | 0.84 | 1.24 |  |  | 
CC1(O)CCN(c2nccc(-c3ccc4ccccc4c3)n2)CC1 [4-methyl-1-[4-(2-naphthyl)pyrimidin-2-yl]piperidin-4-ol] |  | 1.09 |  |  | 
Cc1ccc(S(=O)(=O)N[C@H]2CC[C@H](Nc3nccc(-c4ccc5ccccc5c4)n3)CC2)cc1 [4-methyl-N-(trans-4-{[4-(2-naphthyl)pyrimidin-2-yl]amino}cyclohexyl)benzenesulfonamide] | 1.78 | 1.13 | 1.230 |  | 
Cc1ccc(S(=O)(=O)NCC2CN(c3nccc(-c4ccc5ccccc5c4)n3)C2)cc1 [4-methyl-N-({1-[4-(2-naphthyl)pyrimidin-2-yl]azetidin-3-yl}methyl)benzenesulfonamide] | 1.16 | 0.28 |  |  | 
Cc1ccc(S(=O)(=O)NCC2CCN(c3nccc(-c4ccc5ccccc5c4)n3)CC2)cc1 [4-methyl-N-({1-[4-(2-naphthyl)pyrimidin-2-yl]piperidin-4-yl}methyl)benzenesulfonamide] | 1.07 | 0.41 |  |  | 
Cc1ccc(S(=O)(=O)NC2CCCN(c3nccc(-c4ccc5ccccc5c4)n3)CC2)cc1 (centres unmarked) [4-methyl-N-{1-[4-(2-naphthyl)pyrimidin-2-yl]azepan-4-yl}benzenesulfonamide] | 1.49 | 2.26 | 0.780 |  | 
Cc1ccc(S(=O)(=O)N[C@@H]2CCN(c3nccc(-c4ccc5ccccc5c4)n3)C2)cc1 [4-methyl-N-{(3R)-1-[4-(2-naphthyl)pyrimidin-2-yl]pyrrolidin-3-yl}benzenesulfonamide] | 1.44 | 0.09 |  |  | 
Cc1ccc(S(=O)(=O)N[C@H]2CCN(c3nccc(-c4ccc5ccccc5c4)n3)C2)cc1 [4-methyl-N-{(3S)-1-[4-(2-naphthyl)pyrimidin-2-yl]pyrrolidin-3-yl}benzenesulfonamide] | 1.24 |  |  |  | 
c1ccc2cc(-c3ccnc(N4CC[C@@H](N5CCOCC5)C4)n3)ccc2c1 [4-{(3R)-1-[4-(2-naphthyl)pyrimidin-2-yl]pyrrolidin-3-yl}morpholine] | 1.2 | 2.45 | 1.290 |  | 
O=C1CN([C@@H]2CCN(c3nccc(-c4ccc5ccccc5c4)n3)C2)CCN1 [4-{(3R)-1-[4-(2-naphthyl)pyrimidin-2-yl]pyrrolidin-3-yl}piperazin-2-one] | 1.25 | 2.33 | 2.874 | 5.74 | 
c1ccc2cc(-c3ccnc(N4CC[C@H](N5CCOCC5)C4)n3)ccc2c1 [4-{(3S)-1-[4-(2-naphthyl)pyrimidin-2-yl]pyrrolidin-3-yl}morpholine] | 1.17 | 3.06 | 2.405 | 7.5 | 
O=C1CN([C@H]2CCN(c3nccc(-c4ccc5ccccc5c4)n3)C2)CCN1 [4-{(3S)-1-[4-(2-naphthyl)pyrimidin-2-yl]pyrrolidin-3-yl}piperazin-2-one] | 1.28 | 3.16 | 3.585 | 6.88 | 
